# According to the supplement of paper PMC10307832:
# Tests used:
# Assay in all cases: relative viability (nuclei count vs DMSO), 5 days (fraction); higher = more cells survive
# NCI-H2170 = system: NCI-H2170
# Outline: (§1)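 Lung cancer cell lines in 1536-well plates were dosed by pin tool the day after seeding, either with one drug alone or with a fixed anchor-drug dose plus five library-drug doses (not always all listed) in √10 steps. After 5 days, cells were fixed and their nuclei stained in one step (final 0.05% Triton X-100, 1% formaldehyde, 1 ug/ml Hoechst), then counted on 4× images. Relative viability is the nuclei count in treated wells divided by that in vehicle wells. Values are medians of duplicate plates.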
# NCI-H460 = system: NCI-H460
# Outline: as §1
# HCC-366 = system: HCC-366
# Outline: as §1
# HCC-78 = system: HCC-78
# Outline: as §1
# COR-L 105 = system: COR-L 105
# Outline: as §1
# NCI-H1944 = system: NCI-H1944
# Outline: as §1
# LCLC-97TM1 = system: LCLC-97TM1
# Outline: as §1
# UMC-11 = system: UMC-11
# Outline: as §1
# NCI-H1975 = system: NCI-H1975
# Outline: as §1
# A-427 = system: A-427
# Outline: as §1
# SK-LU-1 = system: SK-LU-1
# Outline: as §1
# EPLC-272H = system: EPLC-272H
# Outline: as §1
# NCI-H1792 = system: NCI-H1792
# Outline: as §1
# NCI-H358 = system: NCI-H358
# Outline: as §1
# SW 900 = system: SW 900
# Outline: as §1
# NCI-H2085 = system: NCI-H2085
# Outline: as §1
# HOP-62 = system: HOP-62
# Outline: as §1
# LC-2-ad = system: LC-2-ad
# Outline: as §1
# LU99A = system: LU99A
# Outline: as §1
# LXF-289 = system: LXF-289
# Outline: as §1
# NCI-H2342 = system: NCI-H2342
# Outline: as §1
# NCI-H1755 = system: NCI-H1755
# Outline: as §1
# NCI-H1915 = system: NCI-H1915
# Outline: as §1
# NCI-H1793 = system: NCI-H1793
# Outline: as §1
structure (smiles),measurement,setting,value
C[C@@H]1CN(CC(=O)Nc2ccc3c(c2)Cc2cccc(-c4cc(=O)cc(N5CCOCC5)o4)c2S3)C[C@H](C)O1 + Nc1nc2[nH]cc(CCc3ccc(C(=O)N[C@@H](CCC(=O)O)C(=O)O)cc3)c2c(=O)[nH]1 [Pemetrexed] (partner 0.2 µM),relative viability,NCI-H2170; first compound 0.04 µM,0.266
same,relative viability,NCI-H2170; first compound 0.1265 µM,0.286
same,relative viability,NCI-H2170; first compound 0.4 µM,0.259
same,relative viability,NCI-H2170; first compound 4 µM,0.26
same,relative viability,NCI-H460; first compound 0.04 µM,0.0638
same,relative viability,NCI-H460; first compound 0.1265 µM,0.0634
same,relative viability,NCI-H460; first compound 0.4 µM,0.0696
same,relative viability,NCI-H460; first compound 4 µM,0.0616
same,relative viability,HCC-366; first compound 0.04 µM,0.151
same,relative viability,HCC-366; first compound 0.1265 µM,0.162
same,relative viability,HCC-366; first compound 0.4 µM,0.212
same,relative viability,HCC-366; first compound 4 µM,0.152
same,relative viability,HCC-78; first compound 0.04 µM,0.809
same,relative viability,HCC-78; first compound 0.1265 µM,0.84
same,relative viability,HCC-78; first compound 0.4 µM,0.889
same,relative viability,HCC-78; first compound 4 µM,0.917
same,relative viability,COR-L 105; first compound 0.04 µM,1.15
same,relative viability,COR-L 105; first compound 0.1265 µM,1.07
same,relative viability,COR-L 105; first compound 0.4 µM,1.19
same,relative viability,COR-L 105; first compound 4 µM,1.14
same,relative viability,NCI-H1944; first compound 0.1265 µM,0.819
same,relative viability,NCI-H1944; first compound 0.4 µM,0.642
same,relative viability,NCI-H1944; first compound 4 µM,0.616
same,relative viability,LCLC-97TM1; first compound 0.1265 µM,0.192
same,relative viability,LCLC-97TM1; first compound 0.4 µM,0.183
same,relative viability,LCLC-97TM1; first compound 4 µM,0.17
same,relative viability,UMC-11; first compound 0.04 µM,0.757
same,relative viability,UMC-11; first compound 0.1265 µM,0.764
same,relative viability,UMC-11; first compound 0.4 µM,0.767
same,relative viability,UMC-11; first compound 4 µM,0.674
same,relative viability,NCI-H1975; first compound 0.04 µM,0.268
same,relative viability,NCI-H1975; first compound 0.1265 µM,0.263
same,relative viability,NCI-H1975; first compound 0.4 µM,0.303
same,relative viability,NCI-H1975; first compound 4 µM,0.274
same,relative viability,A-427; first compound 0.04 µM,1.05
same,relative viability,A-427; first compound 0.1265 µM,1.04
same,relative viability,A-427; first compound 0.4 µM,1.02
same,relative viability,A-427; first compound 4 µM,0.921
same,relative viability,SK-LU-1; first compound 0.04 µM,1.08
same,relative viability,SK-LU-1; first compound 0.1265 µM,0.933
same,relative viability,SK-LU-1; first compound 0.4 µM,1.01
same,relative viability,SK-LU-1; first compound 4 µM,0.756
same,relative viability,EPLC-272H; first compound 0.04 µM,0.311
same,relative viability,EPLC-272H; first compound 0.1265 µM,0.371
same,relative viability,EPLC-272H; first compound 0.4 µM,0.313
same,relative viability,EPLC-272H; first compound 4 µM,0.269
same,relative viability,NCI-H1792; first compound 0.04 µM,0.72
same,relative viability,NCI-H1792; first compound 0.1265 µM,0.766
same,relative viability,NCI-H1792; first compound 0.4 µM,0.719
same,relative viability,NCI-H1792; first compound 4 µM,0.591
same,relative viability,NCI-H358; first compound 0.04 µM,0.179
same,relative viability,NCI-H358; first compound 0.1265 µM,0.154
same,relative viability,NCI-H358; first compound 0.4 µM,0.162
same,relative viability,NCI-H358; first compound 4 µM,0.157
same,relative viability,SW 900; first compound 0.04 µM,0.469
same,relative viability,SW 900; first compound 0.1265 µM,0.471
same,relative viability,SW 900; first compound 0.4 µM,0.44
same,relative viability,SW 900; first compound 4 µM,0.453
same,relative viability,NCI-H2085; first compound 0.04 µM,0.961
same,relative viability,NCI-H2085; first compound 0.1265 µM,0.936
same,relative viability,NCI-H2085; first compound 0.4 µM,0.935
same,relative viability,NCI-H2085; first compound 4 µM,0.759
same,relative viability,HOP-62; first compound 0.04 µM,0.318
same,relative viability,HOP-62; first compound 0.1265 µM,0.33
same,relative viability,HOP-62; first compound 0.4 µM,0.317
same,relative viability,HOP-62; first compound 4 µM,0.455
same,relative viability,LC-2-ad; first compound 0.04 µM,0.272
same,relative viability,LC-2-ad; first compound 0.1265 µM,0.248
same,relative viability,LC-2-ad; first compound 0.4 µM,0.291
same,relative viability,LC-2-ad; first compound 4 µM,0.249
same,relative viability,LU99A; first compound 0.04 µM,0.184
same,relative viability,LU99A; first compound 0.1265 µM,0.15
same,relative viability,LU99A; first compound 0.4 µM,0.21
same,relative viability,LU99A; first compound 4 µM,0.222
same,relative viability,LXF-289; first compound 0.04 µM,0.884
same,relative viability,LXF-289; first compound 0.1265 µM,0.99
same,relative viability,LXF-289; first compound 0.4 µM,0.89
same,relative viability,LXF-289; first compound 4 µM,0.818
same,relative viability,NCI-H2342; first compound 0.04 µM,0.745
same,relative viability,NCI-H2342; first compound 0.1265 µM,0.777
same,relative viability,NCI-H2342; first compound 0.4 µM,0.767
same,relative viability,NCI-H2342; first compound 4 µM,0.729
same,relative viability,NCI-H1755; first compound 0.04 µM,0.401
same,relative viability,NCI-H1755; first compound 0.1265 µM,0.507
same,relative viability,NCI-H1755; first compound 0.4 µM,0.453
same,relative viability,NCI-H1755; first compound 4 µM,0.47
same,relative viability,NCI-H1915; first compound 0.04 µM,0.478
same,relative viability,NCI-H1915; first compound 0.1265 µM,0.426
same,relative viability,NCI-H1915; first compound 0.4 µM,0.413
same,relative viability,NCI-H1915; first compound 4 µM,0.358
same,relative viability,NCI-H1793; first compound 0.04 µM,0.98
same,relative viability,NCI-H1793; first compound 0.1265 µM,0.752
same,relative viability,NCI-H1793; first compound 0.4 µM,0.855
same,relative viability,NCI-H1793; first compound 4 µM,0.485
